For this assay, the system named is Aco1. In words: Quantitative PCR of Aco1 mRNA in rat prefrontal cortex and hippocampus after Li or VPA. In kind it is in vivo. The settings on record: normalized to Gapdh; for Aco1 gene expression: relative to control, mean ± SD; for mRNA levels of Aco1: rat prefrontal cortex and hippocampus, chronic (4-weeks) treatment, vs control. How it is done: Real-time quantitative RT-PCR analysis was conducted using an ABI7900HT Fast Real-Time PCR System (Applied Biosystems, Foster City, Calif.) in both human and rat samples. TaqMan probes and primers for the seven genes (ACO1, ACO2, IDH1, IDH2, IDH3A, IDH3B, IDH3G) and GAPDH (an internal control) (Table 11) were TAQMAN® Gene Expression Assays products (Applied Biosystems).
The CSF concentrations of 116 major metabolites from several pathways were measured. […] Male Sprague-Dawley rats (Japan SLC Inc., Shizuoka, Japan) aged 6 weeks old were used in this study. All rats were housed in groups of three per cage in a room maintained at 23° C.±2° C. and 60±10% humidity with a 12/12 hour light/dark cycle (lights on at 7:00 a.m.). The rats were given free access to food and water. Animal care and use were conducted in accordance with the Institutional Guidelines for Animal Care and Use of Otsuka Pharmaceutical Co., Ltd. (Tokushima, Japan). […] The drinking water was replaced twice a week. […] All animals were decapitated on day 30 after CSF sampling, and brain regions (prefrontal cortex, and hippocampus) were dissected rapidly on ice. Metabolomic analyses of rat CSF samples were performed as described herein.
Prefrontal cortex, and hippocampus were dissected rapidly on ice and stored in RNA later (Applied Biosystems) at 4° C. until used for RNA isolation, cDNA synthesis and polymerase chain reaction (PCR) amplification. The total RNA was extracted using the RNeasy Lipid Tissue Mini Kit (QIAGEN) following the instructions of manufacturer. RNA yield and integrity was assessed using Nanodrop (NanoDrop Technologies). Reverse transcription of total RNA was done using the […] VILO cDNA Synthesis Kit (Invitrogen). In the quantitative PCR, the cDNA was amplified using commercial TaqMan assays (Applied Biosystems) for rat Idh3A (Rn00586270_m1), Idh3B (Rn00504589_g1), Aco1 (Rn00569045_m1), Aco2 (Rn00577876_m1) and Gapdh (Rn01775763_g1) with an ABI 7500 Fast Real-Time PCR system (Applied Biosystems). (Table 17) Reactions were performed in triplicates. All reactions were normalized to Gapdh and presented as relative expression changes compared to control.

The source of these data is patent US10309967B2, “Methods of diagnosing bipolar disorders and screening for therapeutic compounds” (National University Corporation Chiba University, priority 2015, dated 2019).

“Also recorded” adds a separate entry of the source.

Consider `O=C([O-])[O-].[Li+].[Li+]` [Li, lithium carbonate], for which the “mRNA levels of Aco1” value is recorded as “did not alter; also recorded: not altered”. Besides, for the setting “rat hippocampus”, the Aco1 gene expression is on record as 1.0171 ± 0.0497. Where the note is “rat prefrontal cortex”, the Aco1 gene expression was 1.0091 ± 0.1737.

`CCCC(CCC)C(=O)[O-].[Na+]` [VPA, valproic acid sodium salt]: the Aco1 gene expression is, setting by setting: (rat hippocampus) 1.0956 ± 0.0520; (rat prefrontal cortex) 1.1550 ± 0.1237. Moreover, the “mRNA levels of Aco1” value (sodium salt) is recorded as “did not alter; also recorded: not altered”.
